Assay results as given in ChEMBL document CHEMBL1136297, “Synthesis and pharmacological evaluation of (Z)-9-(heteroarylmethylene)-7-azatricyclo[4.3.1.0(3,7)]decanes: thiophene analogues as potent norepinephrine transporter inhibitors” (Bioorg Med Chem Lett, 2003).

How the values were obtained:
[1] = target: Sodium-dependent dopamine transporter (Rattus norvegicus, UniProt P23977); assay: Ability to inhibit reuptake of dopamine ([3H]DA) at dopamine transporter of rat striatum; format: tissue-based
Sodium-dependent dopamine transporter, sequence (P23977 whole entry): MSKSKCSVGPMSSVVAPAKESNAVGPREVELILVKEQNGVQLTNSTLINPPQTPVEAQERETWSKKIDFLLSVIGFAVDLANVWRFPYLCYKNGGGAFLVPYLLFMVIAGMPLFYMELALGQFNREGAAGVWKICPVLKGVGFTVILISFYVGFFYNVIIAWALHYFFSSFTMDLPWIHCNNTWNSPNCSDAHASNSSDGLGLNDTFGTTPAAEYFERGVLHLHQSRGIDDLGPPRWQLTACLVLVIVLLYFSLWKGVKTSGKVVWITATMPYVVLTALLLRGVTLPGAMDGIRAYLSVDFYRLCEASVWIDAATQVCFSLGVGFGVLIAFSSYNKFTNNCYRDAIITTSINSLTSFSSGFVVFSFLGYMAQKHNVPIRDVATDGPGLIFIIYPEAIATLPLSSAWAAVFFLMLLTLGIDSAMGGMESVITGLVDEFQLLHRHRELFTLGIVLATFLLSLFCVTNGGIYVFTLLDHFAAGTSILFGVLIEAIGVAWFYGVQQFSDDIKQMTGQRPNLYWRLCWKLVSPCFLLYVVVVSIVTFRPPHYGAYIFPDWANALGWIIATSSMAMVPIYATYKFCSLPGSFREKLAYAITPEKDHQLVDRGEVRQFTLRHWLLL

[2] = target: Norepinephrine transporter (Rattus norvegicus, UniProt Q9WTR4); assay: Ability to inhibit reuptake of norepinephrine ([3H]NE) at norepinephrine transporter of rat parietal/occipital region
Norepinephrine transporter, sequence (Q9WTR4 whole entry): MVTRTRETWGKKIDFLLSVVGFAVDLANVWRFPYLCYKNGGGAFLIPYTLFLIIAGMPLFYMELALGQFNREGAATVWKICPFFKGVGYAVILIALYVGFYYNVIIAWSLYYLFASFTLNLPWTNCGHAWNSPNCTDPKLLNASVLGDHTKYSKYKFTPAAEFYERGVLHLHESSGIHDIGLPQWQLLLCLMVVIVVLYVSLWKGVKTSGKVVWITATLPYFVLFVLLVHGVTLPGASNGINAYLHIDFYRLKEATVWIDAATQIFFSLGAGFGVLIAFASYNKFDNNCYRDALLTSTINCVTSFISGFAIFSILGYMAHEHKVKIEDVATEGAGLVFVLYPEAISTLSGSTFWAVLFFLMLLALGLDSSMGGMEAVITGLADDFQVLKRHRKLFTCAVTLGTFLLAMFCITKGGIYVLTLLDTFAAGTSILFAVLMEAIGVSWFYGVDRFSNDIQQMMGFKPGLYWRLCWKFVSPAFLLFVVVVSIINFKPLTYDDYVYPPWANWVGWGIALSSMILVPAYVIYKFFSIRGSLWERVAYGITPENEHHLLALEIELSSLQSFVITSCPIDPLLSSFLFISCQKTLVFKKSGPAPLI

[3] = target: Sodium-dependent serotonin transporter (Rattus norvegicus, UniProt P31652); assay: Ability to inhibit reuptake of serotonin ([3H]5-HT) at serotonin transporter of rat midbrian
Sodium-dependent serotonin transporter, sequence (P31652 whole entry): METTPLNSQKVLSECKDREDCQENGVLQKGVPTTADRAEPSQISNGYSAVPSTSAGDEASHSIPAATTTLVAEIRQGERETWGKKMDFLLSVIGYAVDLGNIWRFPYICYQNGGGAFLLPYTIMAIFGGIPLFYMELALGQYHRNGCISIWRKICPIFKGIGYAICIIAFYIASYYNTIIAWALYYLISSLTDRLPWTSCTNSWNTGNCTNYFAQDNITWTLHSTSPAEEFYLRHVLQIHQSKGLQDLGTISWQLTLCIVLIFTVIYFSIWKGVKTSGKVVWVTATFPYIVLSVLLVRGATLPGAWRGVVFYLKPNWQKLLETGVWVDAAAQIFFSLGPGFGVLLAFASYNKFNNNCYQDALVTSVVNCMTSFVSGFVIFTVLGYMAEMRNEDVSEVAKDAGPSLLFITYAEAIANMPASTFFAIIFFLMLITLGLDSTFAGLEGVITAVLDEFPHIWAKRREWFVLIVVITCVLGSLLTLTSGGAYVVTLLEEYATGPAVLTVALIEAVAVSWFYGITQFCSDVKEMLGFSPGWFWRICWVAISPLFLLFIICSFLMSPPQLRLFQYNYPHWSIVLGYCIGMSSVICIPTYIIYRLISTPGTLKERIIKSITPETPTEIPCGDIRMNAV

[4] = Inhibition of reuptake of norepinephrine compared to dopamine.; format: functional
[5] = Inhibition of reuptake of norepinephrine compared to serotonin.; format: functional
[6] = Inhibition of reuptake of serotonin compared to dopamine.; format: functional
[7] = Ratio of inhibitory activity against reuptake of norepinephrine ([3H]-NE) to that of serotonin ([3H]-5-HT)[…]; format: functional

COC(=O)C1C2CC3CCC1N3C/C2=C\c1cc(C)c(Br)s1 (stereo unspecified)
Ki [1]: 1280 nM
Ki [2]: 36.8 nM
Ki [3]: 6.75 nM
Ratio [4]: 0.03
Ratio [5]: 5.45
Ratio [6]: 0.01

COC(=O)C1C2CC3CCC1N3C/C2=C\c1nccs1 (stereo unspecified)
Ki [1]: 5090 nM
Ki [2]: 855 nM
Ki [3]: > 10000 nM
Ratio [7]: 0.17

COC(=O)C1C2CC3CCC1N3C/C2=C\c1ccccn1 (stereo unspecified)
Ki [2]: 115 nM
Ki [3]: 3150 nM
Ratio [4]: 0.11
Ratio [5]: 0.04
Ratio [6]: 2.97

COC(=O)C1C2CC3CCC1N3C/C2=C\c1ccc(-c2ccc(SC)cc2)s1 (stereo unspecified)
Ki [1]: 1650 nM
Ki [2]: 273 nM
Ki [3]: 3320 nM
Ratio [4]: 0.16
Ratio [5]: 0.08
Ratio [6]: 2.01

COC(=O)C1C2CC3CCC1N3C/C2=C\c1ccc(C)s1 (stereo unspecified)
Ratio [4]: 0.01
Ratio [5]: 0.03
Ratio [6]: 0.44

COC(=O)C1C2CC3CCC1N3C/C2=C\c1cnc(OC)nc1OC (stereo unspecified)
Ki [1]: > 10000 nM
Ki [2]: 9450 nM
Ki [3]: 5140 nM
Ratio [7]: 1.84

COC(=O)C1C2CC3CCC1N3C/C2=C\c1ccc(Cl)s1 (stereo unspecified)
Ki [1]: 130 nM
Ki [2]: 9.7 nM
Ki [3]: 53 nM
Ratio [4]: 0.07
Ratio [5]: 0.18
Ratio [6]: 0.41

CCc1ccc(/C=C2\CN3C4CCC3C(C(=O)OC)C2C4)s1 (stereo unspecified)
Ki [1]: > 10000 nM
Ki [2]: 2130 nM
Ki [3]: 346 nM
Ratio [7]: 6.16

COC(=O)C1C2CC3CCC1N3C/C2=C\c1ccc(-c2ccc(OC)cc2)s1 (stereo unspecified)
Ki [1]: 371 nM
Ki [2]: 10.3 nM
Ki [3]: 531 nM
Ratio [4]: 0.03
Ratio [5]: 0.02
Ratio [6]: 1.43

COC(=O)C1C2CC3CCC1N3C/C2=C\c1cccnc1 (stereo unspecified)
Ki [1]: > 10000 nM
Ki [2]: 12700 nM
Ki [3]: 4580 nM
Ratio [7]: 2.77

COC(=O)C1C2CC3CCC1N3C/C2=C\c1ccsc1 (stereo unspecified)
Ki [1]: 485 nM
Ki [2]: 33 nM
Ki [3]: 3140 nM
Ratio [4]: 0.07
Ratio [5]: 0.01
Ratio [6]: 6.47

COC(=O)C1C2CC3CCC1N3C/C2=C\c1ccc(-c2ccc(Cl)s2)s1 (stereo unspecified)
Ki [1]: 242 nM
Ki [2]: 58 nM
Ki [3]: 93 nM
Ratio [4]: 0.24
Ratio [5]: 0.62
Ratio [6]: 0.38

COC(=O)C1C2CC3CCC1N3C/C2=C\c1cnccn1 (stereo unspecified)
Ki [1]: 6570 nM
Ki [2]: 1930 nM
Ki [3]: 7140 nM
Ratio [4]: 0.29
Ratio [5]: 0.27
Ratio [6]: 1.09

CCCc1ccc(/C=C2\CN3C4CCC3C(C(=O)OC)C2C4)s1 (stereo unspecified)
Ki [1]: 1600 nM
Ki [2]: 624 nM
Ki [3]: 269 nM
Ratio [4]: 0.39
Ratio [5]: 2.32
Ratio [6]: 0.17

COC(=O)C1C2CC3CCC1N3C/C2=C\c1ccc(I)s1 (stereo unspecified)
Ratio [4]: 0.01
Ratio [5]: 0.17
Ratio [6]: 0.08

COC(=O)C1C2CC3CCC1N3C/C2=C\c1ccc(Cl)nc1 (stereo unspecified)
Ki [1]: > 10000 nM
Ki [2]: 6510 nM
Ki [3]: 810 nM
Ratio [7]: 8.03

COC(=O)C1C2CC3CCC1N3C/C2=C\c1ccc(-c2ccccc2)s1 (stereo unspecified)
Ki [1]: 179 nM
Ki [2]: 13.5 nM
Ki [3]: 71 nM
Ratio [4]: 0.08
Ratio [5]: 0.19
Ratio [6]: 0.4

COC(=O)C1C2CC3CCC1N3C/C2=C\c1cccs1 (stereo unspecified)
Ratio [4]: 0.1
Ratio [5]: 0.01
Ratio [6]: 7.63

COC(=O)C1C2CC3CCC1N3C/C2=C\c1ccc(-c2cccs2)s1 (stereo unspecified)
Ki [1]: 298 nM
Ki [2]: 98 nM
Ki [3]: 48 nM
Ratio [4]: 0.33
Ratio [5]: 2.04
Ratio [6]: 0.16

COC(=O)C1C2CC3CCC1N3C/C2=C\c1ccc(Br)s1 (stereo unspecified)
Ki [1]: 147 nM
Ki [2]: 20 nM
Ki [3]: 36 nM
Ratio [4]: 0.14
Ratio [5]: 0.57
Ratio [6]: 0.24

CCCCc1ccc(/C=C2\CN3C4CCC3C(C(=O)OC)C2C4)s1 (stereo unspecified)
Ki [1]: 4700 nM
Ki [2]: 364 nM
Ki [3]: 665 nM
Ratio [4]: 0.08
Ratio [5]: 0.55
Ratio [6]: 0.14

COC(=O)C1C2CC3CCC1N3C/C2=C\c1cccc(OC)n1 (stereo unspecified)
Ki [1]: 14000 nM
Ki [2]: 308 nM
Ki [3]: 477 nM
Ratio [4]: 0.02
Ratio [5]: 0.65
Ratio [6]: 0.03

COC(=O)C1C2CC3CCC1N3C/C2=C\c1ccc(OC)s1 (stereo unspecified)
Ki [1]: > 10000 nM
Ki [2]: 2250 nM
Ki [3]: 544 nM
Ratio [7]: 4.12
